Source: patent US4740233A, “Substituted 1,2,4-triazolo[1,5-a]-pyrimidine-2-sulfonamides and compositions and methods of controlling undesired vegetation and suppressing the nitrification of ammonium nitrogen in soil” (The Dow Chemical Company, priority 1986, dated 1988)

Tests used:
[1] = test system: annual sugar beet variety (SLC03); experiment: Plant growth regulator activity, postemergence; type: in vivo; conditions: Beta vulgaris, post-emergence, 672 h, 4 weeks after spraying; read-out: Bolting Inhibition (postemergence), concentration with observed effect
Excerpt: (§1) Using a regular biennial variety, even a bolting-susceptible variety would require a cold treatment of around 10-16 weeks plus a hormone treatement in conjunction with specific light intensities. Thus, for a screening organism, we selected one which would consistently produce bolting on a regular schedule. The screen is run with an annual sugar beet variety (SLC03) provided by Dr. Richard J. Hecker, Fort Collins, Colo. This variety is an inbred which bolts in the 6- to 8-leaf stage without any need for vernalization. This allows the screen to be run entirely in the greenhouse with all 110 chemical compounds tested on one tray. The sugarbeets are grown in 3×3 inch square pots in a greenhouse sandy loam potting mix. The sugarbeets are sprayed with test compounds when they are 2 to 3 weeks old (2 true leaves). The compounds are dissolved in acetone and diluted with water containing Tween 20 as a wetting agent. The concentration of acetone in the final spray is 20% and the concentration of Tween 20 is 0.05 percent. The plants are examined for the appearance of a bolt 4 weeks after spraying.

[2] = test system: nitrification of ammonium nitrogen; experiment: Suppression of nitrification of ammonium nitrogen in soil; conditions: 27° C.
How it was run: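 Soil (20 g) moistened to its 1/3 bar tension value, mixed with test chemical and incubated sealed for two weeks at 27° C. Nitrate extracted with ammonium sulfate solution and measured by nitrate-specific ion electrode; value given as % NH4-N remaining.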

[3] = test system: annual sugar beet variety (SLC03); experiment: Plant growth regulator activity, preemergence; type: in vivo; conditions: for minimal effective concentration: Beta vulgaris, pre-emergence, 6-7 weeks, read-out: Bolting Inhibition (preemergence), concentration with observed effect
Excerpt: as §1
Preemergence tests are conducted by spraying formulated chemical on seeds placed on potting soil. The sprayed seeds are then covered with 1/4 inch of potting soil and the pots are watered. Bolting is evaluated 6-7 weeks after the initiation of the test. At this time untreated plants have a vigorous bolting stem with visible flowers.

[4] = test system: corn; experiment: Postemergent control of plant species; type: in vivo, Zea mays; conditions: Zea mays, post-emergence, 336 h, read-out: percent postemergent control
How it was run: (§2)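 Foliar spray, 2-4 leaf stage, greenhouse. Formulation: acetone solution (2x final conc.) mixed 1:1 with water + 0.1% surface active agent. ~2 wk hold, watered as needed. Readout = % growth reduction vs untreated same-species controls.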

[5] = test system: johnson grass; experiment: Postemergent control of plant species; type: in vivo, Sorghum halepense; conditions: Sorghum halepense, post-emergence, 336 h, read-out: percent postemergent control
How it was run: as §2

[6] = test system: barnyardgrass; experiment: Postemergent control of plant species; type: in vivo, Echinochloa crusgalli; conditions: Echinochloa crus-galli, post-emergence, 336 h, read-out: percent postemergent control
How it was run: as §2

[7] = test system: sugar beet; experiment: Postemergent control of plant species; type: in vivo, Beta saccharifera; conditions: Beta vulgaris, post-emergence, 336 h, read-out: percent postemergent control
How it was run: as §2

[8] = test system: annual morning glory; experiment: Postemergent control of plant species; type: in vivo, Ipomoea spp.; conditions: Ipomoea, post-emergence, 336 h, read-out: percent postemergent control
How it was run: as §2

[9] = test system: rape; experiment: Postemergent control of plant species; type: in vivo, Brassica napus; conditions: Brassica napus, post-emergence, 336 h, read-out: percent postemergent control
How it was run: as §2

[10] = test system: wheat; experiment: Postemergent control of plant species; type: in vivo, Triticum aestivum; conditions: Triticum aestivum, post-emergence, 336 h, read-out: percent postemergent control
How it was run: as §2

[11] = test system: soybean; experiment: Postemergent control of plant species; type: in vivo, Glycine max.; conditions: Glycine max, post-emergence, 336 h, read-out: percent postemergent control
How it was run: as §2

[12] = test system: sorghum; experiment: Postemergent control of plant species; type: in vivo, Sorghum vulgare; conditions: Sorghum, post-emergence, 336 h, read-out: percent postemergent control
How it was run: as §2

[13] = test system: yellow foxtail; experiment: Postemergent control of plant species; type: in vivo, Setaria lutescens; conditions: Setaria, post-emergence, 336 h, read-out: percent postemergent control
How it was run: as §2

[14] = test system: velvetleaf; experiment: Postemergent control of plant species; type: in vivo, Abutilon theophrasti; conditions: Abutilon theophrasti, post-emergence, 336 h, read-out: percent postemergent control
How it was run: as §2

[15] = test system: pigweed; experiment: Postemergent control of plant species; type: in vivo, Amaranthus spp.; conditions: Amaranthus retroflexus, post-emergence, 336 h, read-out: percent postemergent control
How it was run: as §2

[16] = test system: jimsonweed; experiment: Postemergent control of plant species; type: in vivo, Datura stramonium; conditions: Datura stramonium, post-emergence, 336 h, read-out: percent postemergent control
How it was run: as §2

[17] = test system: crabgrass; experiment: Postemergent control of plant species; type: in vivo, Digitaria spp.; conditions: Digitaria sanguinalis, post-emergence, 336 h, read-out: percent postemergent control
How it was run: as §2

[18] = test system: cotton; experiment: Postemergent control of plant species; type: in vivo, Gossypium spp.; conditions: Gossypium hirsutum, post-emergence, 336 h, read-out: percent postemergent control
How it was run: as §2

[19] = test system: wild oats; experiment: Postemergent control of plant species; type: in vivo, Avena fatua; conditions: Avena fatua, post-emergence, 336 h, read-out: percent postemergent control
How it was run: as §2

[20] = test system: yellow nutsedge; experiment: Postemergent control of plant species; type: in vivo, Cyperus esculentus; conditions: Cyperus, post-emergence, 336 h, read-out: percent postemergent control
How it was run: as §2

[21] = test system: rice; experiment: Postemergent control of plant species; type: in vivo, Oryza sativa; conditions: Oryza sativa, post-emergence, 336 h, read-out: percent postemergent control
How it was run: as §2

[22] = test system: cocklebur; experiment: Postemergent control of plant species; type: in vivo, Xanthium spp.; conditions: Xanthium strumarium, post-emergence, 336 h, read-out: percent postemergent control
How it was run: as §2

[23] = test system: johnson grass; experiment: Preemergent control of plant species; type: in vivo, Sorghum halepense; conditions: Sorghum halepense, pre-emergence, 336 h; 0.25 lb/acre; read-out: percent preemergent control
How it was run: (§3)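 Growth reduction relative to untreated plants of the same species, assessed two weeks after treatment, defines the control value. Compositions, mostly aqueous emulsions, were deposited uniformly on seeded greenhouse soil beds at the tabulated rates, with a water-treated bed as reference.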

[24] = test system: soybean; experiment: Preemergent control of plant species; type: in vivo, Glycine max.; conditions: Glycine max, pre-emergence, 336 h; 0.25 lb/acre; read-out: percent preemergent control
How it was run: as §3

[25] = test system: rape; experiment: Preemergent control of plant species; type: in vivo, Brassica napus; conditions: Brassica napus, pre-emergence, 336 h; 0.25 lb/acre; read-out: percent preemergent control
How it was run: as §3

[26] = test system: sugar beet; experiment: Preemergent control of plant species; type: in vivo, Beta saccharifera; conditions: Beta vulgaris, pre-emergence, 336 h; 0.25 lb/acre; read-out: percent preemergent control
How it was run: as §3

[27] = test system: annual morning glory; experiment: Preemergent control of plant species; type: in vivo, Ipomoea spp.; conditions: Ipomoea, pre-emergence, 336 h; 0.25 lb/acre; read-out: percent preemergent control
How it was run: as §3

[28] = test system: jimsonweed; experiment: Preemergent control of plant species; type: in vivo, Datura stramonium; conditions: Datura stramonium, pre-emergence, 336 h; 0.25 lb/acre; read-out: percent preemergent control
How it was run: as §3

[29] = test system: wild oats; experiment: Preemergent control of plant species; type: in vivo; conditions: Avena fatua, pre-emergence, 336 h; 0.25 lb/acre; read-out: percent preemergent control
How it was run: as §3

[30] = test system: wheat; experiment: Preemergent control of plant species; type: in vivo, Triticum aestivum; conditions: Triticum aestivum, pre-emergence, 336 h; 0.25 lb/acre; read-out: percent preemergent control
How it was run: as §3

[31] = test system: cotton; experiment: Preemergent control of plant species; type: in vivo, Gossypium spp.; conditions: Gossypium hirsutum, pre-emergence, 336 h; 0.25 lb/acre; read-out: percent preemergent control
How it was run: as §3

[32] = test system: yellow nutsedge; experiment: Preemergent control of plant species; type: in vivo, Cyperus esculentus; conditions: Cyperus, pre-emergence, 336 h; 0.25 lb/acre; read-out: percent preemergent control
How it was run: as §3

[33] = test system: velvetleaf; experiment: Preemergent control of plant species; type: in vivo, Abutilon theophrasti; conditions: Abutilon theophrasti, pre-emergence, 336 h; 0.25 lb/acre; read-out: percent preemergent control
How it was run: as §3

[34] = test system: yellow foxtail; experiment: Preemergent control of plant species; type: in vivo, Setaria lutescens; conditions: Setaria, pre-emergence, 336 h; 0.25 lb/acre; read-out: percent preemergent control
How it was run: as §3

[35] = test system: barnyardgrass; experiment: Preemergent control of plant species; type: in vivo, Echinochloa crusgalli; conditions: Echinochloa crus-galli, pre-emergence, 336 h; 0.25 lb/acre; read-out: percent preemergent control
How it was run: as §3

[36] = test system: rice; experiment: Preemergent control of plant species; type: in vivo, Oryza sativa; conditions: Oryza sativa, pre-emergence, 336 h; 0.25 lb/acre; read-out: percent preemergent control
How it was run: as §3

[37] = test system: corn; experiment: Preemergent control of plant species; type: in vivo, Zea mays; conditions: Zea mays, pre-emergence, 336 h; 0.25 lb/acre; read-out: percent preemergent control
How it was run: as §3

Cc1cc(C)n2nc(S(=O)(=O)Nc3c(F)cccc3Oc3ccc(C(F)(F)F)cc3Cl)nc2n1 [Compound 98]
minimal effective concentration [1]: 400 µg/mL
% NH4-N Remaining After 2 Weeks Incubation ([2]; 0.06 ppm): 0%
% NH4-N Remaining After 2 Weeks Incubation ([2]; 0.25 ppm): 25%
% NH4-N Remaining After 2 Weeks Incubation ([2]; 1 ppm): 0%
% NH4-N Remaining After 2 Weeks Incubation ([2]; 4 ppm): 37%

COc1cccc(C=NO)c1NS(=O)(=O)c1nc2nc(C)cc(C)n2n1 [Compound 71]
minimal effective concentration [3]: 400 µg/mL
plant injury at 500 ppm [4]: 0%
pest or weed control at 500 ppm [5]: 0%
pest or weed control at 500 ppm [6]: 0%
plant injury at 500 ppm [7]: 70%
pest or weed control at 500 ppm [8]: 0%
plant injury at 500 ppm [9]: 70%
plant injury at 500 ppm [10]: 0%
plant injury at 500 ppm [11]: 35%
plant injury at 500 ppm [12]: 0%
pest or weed control at 500 ppm [13]: 0%
pest or weed control at 500 ppm [14]: 70%
pest or weed control at 500 ppm [15]: 0%
pest or weed control at 500 ppm [16]: 60%
pest or weed control at 500 ppm [17]: 20%
plant injury at 500 ppm [18]: 75%
pest or weed control at 500 ppm [19]: 0%
pest or weed control at 500 ppm [20]: 0%
plant injury at 500 ppm [21]: 0%
% NH4-N Remaining After 2 Weeks Incubation ([2]; 0.06 ppm): 35%
% NH4-N Remaining After 2 Weeks Incubation ([2]; 0.25 ppm): 49%
% NH4-N Remaining After 2 Weeks Incubation ([2]; 1 ppm): 84%
% NH4-N Remaining After 2 Weeks Incubation ([2]; 4 ppm): 90%
pest or weed control at 500 ppm [22]: 0%

Cc1cc(C)n2nc(S(=O)(=O)Nc3c(Cl)cccc3-c3ccccc3)nc2n1 [Compound 63]
minimal effective concentration [1]: 5 µg/mL
% NH4-N Remaining After 2 Weeks Incubation ([2]; 0.06 ppm): 6%
% NH4-N Remaining After 2 Weeks Incubation ([2]; 0.25 ppm): 6%
% NH4-N Remaining After 2 Weeks Incubation ([2]; 1 ppm): 36%
% NH4-N Remaining After 2 Weeks Incubation ([2]; 4 ppm): 61%

Cc1cc(C)n2nc(S(=O)(=O)Nc3c(C)ccc(Cl)c3C)nc2n1 [Compound 65]
pest or weed control at 280.212 g/ha [23]: 95%
minimal effective concentration [1]: 12 µg/mL
plant injury at 280.212 g/ha [24]: 100%
plant injury at 280.212 g/ha [25]: 20%
plant injury at 280.212 g/ha [26]: 100%
pest or weed control at 280.212 g/ha [27]: 50%
pest or weed control at 280.212 g/ha [28]: 90%
pest or weed control at 280.212 g/ha [29]: 0%
plant injury at 280.212 g/ha [30]: 0%
plant injury at 280.212 g/ha [31]: 0%
pest or weed control at 280.212 g/ha [32]: 95%
pest or weed control at 280.212 g/ha [33]: 20%
pest or weed control at 280.212 g/ha [34]: 95%
pest or weed control at 280.212 g/ha [35]: 70%
plant injury at 280.212 g/ha [36]: 30%
% NH4-N Remaining After 2 Weeks Incubation ([2]; 0.06 ppm): 5%
% NH4-N Remaining After 2 Weeks Incubation ([2]; 0.25 ppm): 52%
% NH4-N Remaining After 2 Weeks Incubation ([2]; 1 ppm): 65%
% NH4-N Remaining After 2 Weeks Incubation ([2]; 4 ppm): 85%
plant injury at 280.212 g/ha [37]: 0%

Cc1nc2nc(S(=O)(=O)Nc3ccccc3Cl)nn2c(C)c1Cl [Compound 198]
observed effect (preemergence) ([3]; 400 ppm): stunting
minimal effective concentration [3]: 400 µg/mL
% NH4-N Remaining After 2 Weeks Incubation ([2]; 0.06 ppm): 22%
% NH4-N Remaining After 2 Weeks Incubation ([2]; 0.25 ppm): 37%
% NH4-N Remaining After 2 Weeks Incubation ([2]; 1 ppm): 53%
% NH4-N Remaining After 2 Weeks Incubation ([2]; 4 ppm): 74%
